Results as given in US8697840B2, “Peptide inhibition of lung epithelial apoptosis and pulmonary fibrosis” (Board of Regents, The University of Texas System, priority 2008, dated 2014).

Experiments:
p53 = test: IHC of lung tissue of bleo-treated mice: p53; type: in vivo, mouse; conditions: bleomycin-treated mice, 24-72 h
Procedure: (§1) For immunohistochemical (IHC) analysis, lungs were inflated at constant pressure of 20 cm H2O, removed and fixed overnight in 2% paraformaldehyde in PBS. Tissue was dehydrated by passage through a standard alcohol series and was embedded in paraffin. 5 μm sections were deparaffinized with xylene followed by incubation with 100% and 95% alcohol. After 10 min of antigen retrieval, the slides were incubated with H2O2 for 30 min to quench endogenous peroxidase. Slides were incubated overnight with the respective antibodies in PBS containing 0.1% Tween 20 and further processed using Lab vision kit (Freemont Calif.).
(§2) An IHC study was conducted to analyze lung tissue for expression p53, uPA, uPAR, PAI-1 and cleaved caspase 3 (Table 2). […] These IHC observations were confirmed by Western blotting (see Example II and FIG. 5).

[1] = test system: bleo-induced collagen deposition in mouse lung; test: Mason's Trichrome stain for collagen of lung sections of bleo-treated mice; type: in vivo; conditions: for Collagen content in lung section: bleo-treated animals, peptide one day after bleo, day 21, trichrome stain
Procedure: FIG. 13 is a set of photomicrographs showing that PP-1 prevents bleo-induced collagen deposition in mouse lung. Mice were treated with bleo (50 μg/ml) by intranasal instillation followed by treatment with PP-1 (10 nM) or control peptide CP-1 on day 2. Lungs were excised on day 21, inflated and fixed in formalin, a sectioned into […] sections which were subjected to Mason's Trichrome stain (a three-color stain that stains cell nuclei red, collagen green or blue, and cytoplasm red). Blue staining indicates collagen deposition in bleo-treated lung sections.
FIGS. 14A & 14B is a series of photomicrographs of lung epithelial tissue stained with Mason's trichrome stain for collagen (FIG. 10A) and by TUNEL staining for apoptosis (FIG. 10B). Bleo-treated animals were instilled with either PP-1, PP-2 or control peptide CP-1 one day after bleo treatment, The lungs were removed on day 21, subjected to the staining procedures and examined for collagen accumulation or apoptosis.
Collagen deposition in mouse lung after bleo treatment was investigated. Mice were treated with bleo (50 μg/ml) by intranasal instillation followed by treatment with PP-1 (10 nM) (designated as PP in Figure) or control peptide CP-1 (designated CP in FIG. 13) on day 2. Lungs were excised on day 21, inflated and fixed in formalin, a sectioned into […] sections which were subjected to Mason's Trichrome stain (a three-color stain that stains cell nuclei red, collagen green or blue, and cytoplasm red).
A comparison was made of normal and bleo-treated lung, and the effect of PP-1 and PP-2 on the bleo-treated lungs were examined. Animals were treated with bleo and peptides as above. Lung tissue was removed at day 21 and stained with Mason's trichrome stain for collagen and subjected to TUNEL staining for apoptosis.

uPA [2] = test: Western blot of lungs of bleo-treated mice: uPA; type: in vivo, mouse; conditions: 40 μg bleomycin intranasally, 10 mM peptide i.p. by 0.1 ml osmotic pump after 24 h, day 7
Procedure: (§3) Mice were treated intranasally with 50 μl saline (SAL; control) or an equal volume of a 40 μg bleomycin solution (Bleo). After 24 h, 10 mM PP-1 (“Bleo+PP-1”) or control peptide (Bleo+CP-1) were given intraperitoneally using a 0.1 ml osmotic pump. Lungs were excised on day 7, bronchoalveolar lavage (BAL) fluid (“B”), lung homogenates (“H”) and membrane proteins (uPAR) were analyzed by Western blotting using antibodies specific for the murine proteins. (The same blot (“H”) was then stripped and analyzed for β-actin confirm equivalent loading of the lanes)
(§4) Mice were treated intranasally with 50 μl saline or an equal volume of a 40 μg bleomycin solution. After 24 h, 10 mM PP-1 or the same concentration of control peptide CP-1 were given intraperitoneally using a 0.1 ml osmotic pump. Lungs were excised on day 7.
Lung tissue was chopped into small pieces with fine scissors and rinsed 3× with PBS. The tissues were then homogenized in 1 ml of extraction buffer (25 mM Tris-HCl, pH 7.9. 0.5 mM EDTA and 0.1 mM PMSF) and the homogenate was centrifuged at 12,000 g for 15 min at 4° C. […] Protein content was measured using a BioRad protein assay kit. […] Protein was detected by enhanced chemiluminescence (ECL). […]
(§5) Mice were treated intranasally with saline (controls) are indicated (SAL). […] (The same blot (H) was later stripped and analyzed for β-actin confirm equivalent loading of the lanes)

uPA [3] = test: IHC of lung tissue of bleo-treated mice: uPA; type: in vivo, mouse; conditions: bleomycin-treated mice, 48-72 h
Procedure: as §1, §2

[4] = test system: bleomycin-induced lung epithelial cell (LEC) apoptosis; test: TUNEL staining for apoptosis of lung sections of bleo-treated mice; type: in vivo, mouse; conditions: for Lung epithelial cell apoptosis: appearance of cells / Lung epithelial cell apoptosis: cell death: bleo-treated animals, peptide one day after bleo; for Lung epithelial cell apoptosis: appearance of cells: lung tissue day 21; for Lung epithelial cell apoptosis: cell death: lung tissue day 21, TUNEL; for apoptosis (TUNEL positive cells): peptide 4.5 μM i.p. on day 1 and 2, bleomycin 40 μg/50 μl intranasal on day 2, 24, 48 and 72 h
Procedure: The mice were sacrificed 24, 48 and 72 h later. Lungs were excised, inflated and fixed in formalin, and […] sections were analyzed by TUNEL staining. […]

uPAR [5] = test: IHC of lung tissue of bleo-treated mice: uPAR; type: in vivo, mouse; conditions: bleomycin-treated mice, 48-72 h
Procedure: as §1, §2

uPAR [6] = test: Western blot of lung membrane proteins of bleo-treated mice: uPAR; type: in vivo, mouse; conditions: 40 μg bleomycin intranasally, 10 mM peptide i.p. by 0.1 ml osmotic pump after 24 h, day 7
Procedure: as §3, §4
After preparation of the cytosolic extract, above, the pellet obtained after the initial centrifugation was resuspended in a membrane extraction buffer containing β-D-glucopyranoside and the suspension was homogenized for 5 to 10 min. […] The resulting clarified supernatant was analyzed for uPAR expression by Western blotting with anti-uPAR antibody and detected by ECL.
as §5

[7] = conclusion from Table 3, day 21

Substance | p53 expression in lung tissue (IHC) (p53) | Collagen content in lung section [1] | uPA levels in lung (uPA [2]) | uPA levels in lung tissue (IHC) (uPA [3]) | Lung epithelial cell apoptosis: appearance of cells [4] | Lung epithelial cell apoptosis: cell death [4] | apoptosis (TUNEL positive cells) [4] | uPAR levels in lung tissue (IHC) (uPAR [5]) | uPAR levels in lung (membrane proteins) (uPAR [6]) | bleo-induced collagen deposition (Mason's Trichrome stain) ([1]; bleo 50 μg/ml intranasal, PP-1 (10 nM) on day 2, lungs day 21) | development of bleo-induced lung fibrosis [1, 7] | bleo-induced mouse lung injury (TUNEL staining for apoptosis) ([4]; bleo 50 μg/ml intranasal, peptide intranasally 3.35 μM (375 μg/50 μl) on day 2, 4 and 6, lungs after 21 days) | protection of LECs from bleo-induced lung injury [4, 7] [%] | bleo-induced LEC apoptosis (apoptotic scores) ([4]; i.p. 0.1 ml osmotic minipump, 10 mM peptide, one day after intranasal bleo, lungs after 16 days)
Bleomycin | induced p53 expression beginning at 48 h and increasing up to 72 h | Increased | suppression | uPA and uPAR levels fell between 48-72 h of bleomycin exposure | Fibrotic cells, | 80% cell death | increased apoptosis (TUNEL positive cells) as early as 24 h after exposure | uPA and uPAR levels fell between 48-72 h of bleomycin exposure | suppression | – | – | – | – | –
DGIWKASFTTFTVTKYWFYR [PP-1, residues 82-101 of human Cav-1, the caveolin-1 scaffolding domain] | blocked bleomycin induced p53 expression | Normal | enhanced the suppressed uPA and uPAR levels | reversed this suppression | No fibrosis, | 12% cell | reversed bleomycin-induced apoptosis | reversed this suppression | enhanced the suppressed uPA and uPAR levels | prevented bleo-induced collagen deposition | prevented the development of bleo-induced lung fibrosis | prevented bleo-induced mouse lung injury in vivo | > 90 | protect against bleo-induced LEC apoptosis
